Values joined by “and” are separate entries in the source; they are usually repeats but may differ in a detail not shown here. Equal values may be shown once.
target: Furin (Homo sapiens, UniProt P09958); experiment: furin inhibitor potency, dose response, biochemical, fluorescence intensity, IC50 (AID 463182)
Sequence (P09958 whole entry): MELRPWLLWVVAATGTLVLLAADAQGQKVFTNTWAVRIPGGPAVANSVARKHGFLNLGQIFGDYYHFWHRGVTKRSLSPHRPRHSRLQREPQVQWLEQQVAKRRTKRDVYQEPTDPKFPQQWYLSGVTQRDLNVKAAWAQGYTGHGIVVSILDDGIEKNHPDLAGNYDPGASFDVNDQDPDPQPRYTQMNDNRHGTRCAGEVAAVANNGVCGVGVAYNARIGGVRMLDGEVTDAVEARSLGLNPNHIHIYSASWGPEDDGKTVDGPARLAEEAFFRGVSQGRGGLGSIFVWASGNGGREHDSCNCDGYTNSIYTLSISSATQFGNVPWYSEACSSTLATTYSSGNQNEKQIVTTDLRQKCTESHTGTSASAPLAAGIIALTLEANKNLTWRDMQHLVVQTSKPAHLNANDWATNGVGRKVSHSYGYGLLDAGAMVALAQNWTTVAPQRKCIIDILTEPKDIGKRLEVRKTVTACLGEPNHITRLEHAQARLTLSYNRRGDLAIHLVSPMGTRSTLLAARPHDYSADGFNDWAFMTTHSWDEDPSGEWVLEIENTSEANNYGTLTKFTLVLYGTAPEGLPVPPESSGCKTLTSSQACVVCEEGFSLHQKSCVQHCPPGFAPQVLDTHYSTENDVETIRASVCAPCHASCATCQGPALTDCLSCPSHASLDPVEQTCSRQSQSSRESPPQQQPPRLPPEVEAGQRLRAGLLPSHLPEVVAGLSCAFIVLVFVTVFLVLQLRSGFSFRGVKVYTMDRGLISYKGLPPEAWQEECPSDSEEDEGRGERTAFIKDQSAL

Row | Compound | IC50
1 | CC1(C)CC(=O)C(=CNc2cccnc2)C(=O)C1 | > 50 µM
2 | CCCOP(=O)(c1ccc(N(C)C)cc1)C(Nc1ccccc1)c1ccc(N(C)C)cc1 (centres undefined) | > 50 µM
3 | Cc1cccc(NC=C2C(=O)CC(C)(C)CC2=O)n1 | > 50 µM
4 | CCN1CCS/C1=C\C=C\C1=[N+](CC)CCS1 [3-ethyl-2-[(E,3E)-3-(3-ethylthiazolidin-2-ylidene)prop-1-enyl]-2-thiazolin-3-ium;iodide] | 33.8 µM and 31.5 µM
5 | CC1(C)CC(=O)C(=CNn2cnc3ccccc3c2=O)C(=O)C1 [5,5-Dimethyl-2-[(4-oxo-4H-quinazolin-3-ylamino)-methylene]-cyclohexane-1,3-dione] | > 50 µM
6 | Cc1cccc(-n2c(O)c(C=CC=Nc3ccccc3)c(=O)[nH]c2=O)c1 [(5Z)-1-(3-methylphenyl)-5-[(E)-3-phenylazanylprop-2-enylidene]-1,3-diazinane-2,4,6-trione] | > 50 µM
7 | Cc1ccccc1-n1c(O)c(C=Nc2ccc(N(C)C)cc2)c(=O)[nH]c1=O [SMR000102641] | > 50 µM
8 | Cc1cccc(C=C2SC(NN=C3CC4CCC3(C)C4(C)C)=NC2=O)c1 (centres undefined) [SMR000159419] | > 50 µM
9 | CSc1nc(N)c(N=Nc2ccc([As](=O)(O)O)cc2)c(O)n1 [[4-[(2Z)-2-(4-azanyl-2-methylsulfanyl-6-oxidanylidene-pyrimidin-5-ylidene)hydrazinyl]phenyl]arsonic acid] | > 50 µM

From BindingDB's records for doi:10.7270/Q2H993NJ (University of Pittsburgh, 2010)
